# Measured values published in patent US20260250318A1, “COMPOSITIONS AND METHODS FOR CROSSING THE BLOOD BRAIN BARRIER” (VOYAGER THERAPEUTICS, INC., priority 2022, published 2026).
# What was measured:
# [1] = test system: brains, heart, liver, muscle, and DRG of the NHPs; assay: Maturation of TTM-001 and TTM-002 capsids, NGS enrichment in NHP tissues; type: in vivo; details: relative to AAV9 control
# Procedure, shortened: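 Variants carry mutations within and flanking the loop IV peptide insert: positions 450–466 were triplet-randomized, while positions 449–466 received low-frequency point mutations. The combined pool went into two NHPs, and each peptide was scored by NGS enrichment ratio against AAV9.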
# brain = assay: Matured TTM-001 and TTM-002 variants, NGS enrichment in mouse brain; type: in vivo, mice; details: relative to AAV9 control
# [2] = NGS fold-enrichment of RNA, NHP brain
# [3] = NGS fold-enrichment, DRG of NHPs
# [4] = NGS fold-enrichment, NHP liver DNA
# [5] = NGS fold-enrichment, NHP liver RNA
# [6] = NGS fold-enrichment, NHP muscle
# [7] = NGS fold-enrichment, RNA, brain of NHPs
# [8] = NGS fold-enrichment, heart of NHPs
# [9] = NGS fold-enrichment, liver DNA of NHPs
# [10] = NGS fold-enrichment, liver RNA of NHPs
# [11] = NGS fold-enrichment, muscle of NHPs
# [12] = NGS fold-enrichment, brain of mice
# [13] = NGS fold-enrichment, mouse brain
# [14] = NGS fold-enrichment of matured AAV capsid variants, NHP brain, RNA
Sequence,"Fold Enrichment relative to AAV9, Brain (NHP) [1, 2]","Fold Enrichment relative to AAV9, DRG (NHP) [1, 3]","Fold Enrichment relative to AAV9, DRG (NHP) ([1]; NGS fold-enrichment, NHP DRG)","Fold Enrichment relative to AAV9, Heart (NHP) ([1]; NGS fold-enrichment, NHP heart)","Fold Enrichment relative to AAV9, Liver DNA (NHP) [1, 4]","Fold Enrichment relative to AAV9, Liver RNA (NHP) [1, 5]","Fold Enrichment relative to AAV9, Muscle (NHP) [1, 6]","Fold Enrichment relative to AAV9, Brain (NHP) [1, 7]","Fold Enrichment relative to AAV9, Heart (NHP) [1, 8]","Fold Enrichment relative to AAV9, Liver DNA (NHP) [1, 9]","Fold Enrichment relative to AAV9, Liver RNA (NHP) [1, 10]","Fold Enrichment relative to AAV9, Muscle (NHP) [1, 11]","Fold Enrichment relative to AAV9, Brain (Mouse) (brain; [12])","Fold Enrichment relative to AAV9, Brain (Mouse) (brain; [13])",other results
KTIDGSGSPHSKAQNQQH,79.090 fold,0.000 fold,0.000 fold,0.000 fold,0.049 fold,0.136 fold,0.000 fold,79.090 fold,0.000 fold,0.049 fold,0.136 fold,0.000 fold,57.914 fold,57.914 fold,–
KTIDGSGSPHSKGQNRQT,–,0.000 fold,–,–,–,–,–,73.930 fold,0.000 fold,0.091 fold,0.106 fold,0.000 fold,63.626 fold,–,–
KTIDGSGSPHSKSQNHQT,–,–,–,–,–,–,–,–,–,–,–,–,–,–,"Fold Enrichment relative to AAV9, Brain (NHP) [1, 14]: 51.307 fold; Fold Enrichment relative to AAV9, DRG (NHP) ([1]; NHP DRG): 0.000 fold; Fold Enrichment relative to AAV9, Heart (NHP) ([1]; NHP heart): 0.000 fold; Fold Enrichment relative to AAV9, Liver DNA (NHP) ([1]; NHP liver, DNA): 0.269 fold; Fold Enrichment relative to AAV9, Liver RNA (NHP) ([1]; NHP liver, RNA): 0.000 fold; Fold Enrichment relative to AAV9, Muscle (NHP) ([1]; NHP muscle): 0.000 fold; Fold Enrichment relative to AAV9, Brain (Mouse) (brain; mouse brain): 63.174 fold"
KTIEGHDSPHKSGRNQQT,75.838 fold,–,0.000 fold,0.065 fold,0.079 fold,0.000 fold,0.017 fold,–,–,–,–,–,–,7.818 fold,–
KTIIGGGSPHSKAHNQQT,75.872 fold,0.000 fold,0.000 fold,0.050 fold,0.235 fold,0.000 fold,0.000 fold,75.872 fold,0.050 fold,0.235 fold,0.000 fold,0.000 fold,65.492 fold,65.492 fold,–
KTIIGGGSPHSKAQNPQT,–,–,–,–,–,–,–,–,–,–,–,–,–,–,"Fold Enrichment relative to AAV9, Brain (NHP) [1, 14]: 58.924 fold; Fold Enrichment relative to AAV9, DRG (NHP) ([1]; NHP DRG): 0.000 fold; Fold Enrichment relative to AAV9, Heart (NHP) ([1]; NHP heart): 0.202 fold; Fold Enrichment relative to AAV9, Liver DNA (NHP) ([1]; NHP liver, DNA): 0.126 fold; Fold Enrichment relative to AAV9, Liver RNA (NHP) ([1]; NHP liver, RNA): 0.000 fold; Fold Enrichment relative to AAV9, Muscle (NHP) ([1]; NHP muscle): 0.000 fold; Fold Enrichment relative to AAV9, Brain (Mouse) (brain; mouse brain): 53.992 fold"
KTIIGSGSPHSKAQDRQT,–,–,–,–,–,–,–,–,–,–,–,–,–,–,"Fold Enrichment relative to AAV9, Brain (NHP) [1, 14]: 58.258 fold; Fold Enrichment relative to AAV9, DRG (NHP) ([1]; NHP DRG): 1.393 fold; Fold Enrichment relative to AAV9, Heart (NHP) ([1]; NHP heart): 0.230 fold; Fold Enrichment relative to AAV9, Liver DNA (NHP) ([1]; NHP liver, DNA): 0.045 fold; Fold Enrichment relative to AAV9, Liver RNA (NHP) ([1]; NHP liver, RNA): 0.000 fold; Fold Enrichment relative to AAV9, Muscle (NHP) ([1]; NHP muscle): 0.219 fold; Fold Enrichment relative to AAV9, Brain (Mouse) (brain; mouse brain): 53.981 fold"
KTIIGSGSPHSKAQHQLT,–,0.000 fold,–,–,–,–,–,72.291 fold,0.000 fold,0.000 fold,0.000 fold,0.000 fold,100.144 fold,–,–
KTIIGSGSPHSKAQNRHT,217.176 fold,0.000 fold,0.000 fold,0.000 fold,0.000 fold,0.000 fold,0.000 fold,217.176 fold,0.000 fold,0.000 fold,0.000 fold,0.000 fold,210.515 fold,210.515 fold,–
KTIIKNGSPHSKAQNQQT,–,–,–,–,–,–,–,–,–,–,–,–,–,–,"Fold Enrichment relative to AAV9, Brain (NHP) [1, 14]: 50.587 fold; Fold Enrichment relative to AAV9, DRG (NHP) ([1]; NHP DRG): 0.000 fold; Fold Enrichment relative to AAV9, Heart (NHP) ([1]; NHP heart): 0.000 fold; Fold Enrichment relative to AAV9, Liver DNA (NHP) ([1]; NHP liver, DNA): 0.751 fold; Fold Enrichment relative to AAV9, Liver RNA (NHP) ([1]; NHP liver, RNA): 0.000 fold; Fold Enrichment relative to AAV9, Muscle (NHP) ([1]; NHP muscle): 0.000 fold; Fold Enrichment relative to AAV9, Brain (Mouse) (brain; mouse brain): 75.547 fold"
KTIKGNDSPHKSVQNQQT,85.986 fold,–,0.000 fold,0.135 fold,0.000 fold,0.263 fold,0.000 fold,–,–,–,–,–,–,8.603 fold,–
KTIKGQDSPHKIGQNQQT,110.357 fold,–,0.000 fold,0.103 fold,0.135 fold,0.166 fold,0.058 fold,–,–,–,–,–,–,11.829 fold,–
KTIKGSGSPHSKAQDLQT,–,0.000 fold,–,–,–,–,–,63.260 fold,0.000 fold,0.218 fold,0.000 fold,0.000 fold,58.576 fold,–,–
KTINAHDSPHKIGQNHQT,106.832 fold,–,0.000 fold,0.121 fold,0.231 fold,0.000 fold,0.000 fold,–,–,–,–,–,–,5.074 fold,–
KTINGCGSPHASGQNQQT,132.540 fold,–,0.000 fold,0.121 fold,0.059 fold,0.000 fold,0.042 fold,–,–,–,–,–,–,1.857 fold,–
KTINGGGSPHSKALNQQN,77.822 fold,0.000 fold,0.000 fold,0.131 fold,0.274 fold,0.000 fold,0.000 fold,77.822 fold,0.131 fold,0.274 fold,0.000 fold,0.000 fold,69.884 fold,69.884 fold,–
KTINGGGSPHSKAQDKQT,–,0.000 fold,–,–,–,–,–,59.322 fold,0.000 fold,0.093 fold,0.000 fold,0.000 fold,50.764 fold,–,–
KTINGGGSPHSKAQNPPT,–,0.000 fold,–,–,–,–,–,63.041 fold,0.082 fold,0.057 fold,0.000 fold,0.000 fold,64.045 fold,–,–
KTINGGGSPHSKAQNPQA,–,–,–,–,–,–,–,–,–,–,–,–,–,–,"Fold Enrichment relative to AAV9, Brain (NHP) [1, 14]: 51.574 fold; Fold Enrichment relative to AAV9, DRG (NHP) ([1]; NHP DRG): 0.000 fold; Fold Enrichment relative to AAV9, Heart (NHP) ([1]; NHP heart): 0.000 fold; Fold Enrichment relative to AAV9, Liver DNA (NHP) ([1]; NHP liver, DNA): 0.000 fold; Fold Enrichment relative to AAV9, Liver RNA (NHP) ([1]; NHP liver, RNA): 0.192 fold; Fold Enrichment relative to AAV9, Muscle (NHP) ([1]; NHP muscle): 0.000 fold; Fold Enrichment relative to AAV9, Brain (Mouse) (brain; mouse brain): 102.792 fold"
